Assays:
human D2R/β-arrestin [1] = biological target: T1, human D2R/β-arrestin (Homo sapiens (Human), UniProt P14416); assay: β-arrestin agonist assay (PathHunter); type: cell-based; details: CHO-K1 cells expressing human D2R/β-arrestin; agonist mode
Protocol: The detection reagent (9.6 μL, Buffer:Emerald II:Galactor-Star in a 19:5:1 ratio, i.e., 14.06 mL:3.7 mL:0.74 mL=18.5 mL) was then added to the agonist plates.

human D2R/β-arrestin [2] = biological target: T1, human D2R/β-arrestin; assay: cell-based; details: β-arrestin Antagonist, CHO-K1 cells expressing human D2R/β-arrestin; antagonist mode, quinpirole 130 nM
human D2R/β-arrestin [3] = biological target: T1, human D2R/β-arrestin; assay: Gi/cAMP agonist assay (Lance Ultra cAMP, forskolin); type: cell-based; details: CHO-K1 cells expressing human D2R/β-arrestin; agonist mode, 2.5 μM forskolin
Protocol: Eu-cAMP tracer solution (10 μl, PerkinElmer, 360 μl of Tracer in 17.64 ml kit buffer) and ULight-anti-cAMP solution (10 μl, 120 μL antibody in 17.88 ml kit buffer) was then added to each well.

human D2R/β-arrestin [4] = biological target: T1, human D2R/β-arrestin; assay: cell-based; details: cAMP Antagonist, CHO-K1 cells expressing human D2R/β-arrestin; antagonist mode, 2.5 μM forskolin and 2.7 nM quinpirole
Protocol: Cells were prepared for assays by growing cultures for up to 2 weeks (from about 6-20 passages). A vial of frozen cells was thawed in a water bath held at 37° C. The cells were then transferred into a 50 ml tube with 10 ml growth media. The vial was rinsed with growth media and the contents transferred to the 50 ml tube. The 50 ml tube was centrifuged at 1200 rpm for 5 minutes at room temperature. […] When the cells reached about 90% confluence (approximately 3 days between passages), the cells were passaged and used for either the agonist or antagonist assays as described below.
The cells were prepared for Gi/cAMP assays as described above. The assays were performed using a PE Lance Ultra cAMP kit (TRF0263). The cells were grown on 225 mm dishes, then washed once with 1×PBS (Cellgro) before digestion with 2.5 ml 1× Detachment reagent (DRX 92-0009) for about 2 minutes. PBS (20 ml) was then added to the plate, and the cells were transferred to a 50 ml centrifuge tube, and centrifuged at room temperature using BD Dynac III, at 1200 rpm for 5 minutes. […] The plates were then incubated at room temperature for about 30 minutes before addition of Eu-cAMP tracer solution (10 μl, PerkinElmer) and then ULight-anti-cAMP solution (10 μl) to each well.

T1 sequence (P14416 whole entry): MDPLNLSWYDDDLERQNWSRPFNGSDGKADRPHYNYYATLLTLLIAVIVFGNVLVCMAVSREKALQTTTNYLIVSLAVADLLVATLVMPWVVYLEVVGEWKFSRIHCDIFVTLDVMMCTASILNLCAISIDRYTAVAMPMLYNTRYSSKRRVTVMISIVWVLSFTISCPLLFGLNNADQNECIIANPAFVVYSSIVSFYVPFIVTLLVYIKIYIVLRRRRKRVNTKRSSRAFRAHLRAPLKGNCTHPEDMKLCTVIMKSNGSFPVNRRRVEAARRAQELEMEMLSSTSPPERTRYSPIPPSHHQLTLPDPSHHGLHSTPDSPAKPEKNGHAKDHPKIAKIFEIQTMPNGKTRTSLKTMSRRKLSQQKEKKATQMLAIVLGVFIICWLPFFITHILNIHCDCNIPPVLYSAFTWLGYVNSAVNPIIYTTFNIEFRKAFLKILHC

| Compound | EC50 (human D2R/β-arrestin [1]) [nM] | IC50 (human D2R/β-arrestin [2]) [nM] | EC50 (human D2R/β-arrestin [3]) [nM] | IC50 (human D2R/β-arrestin [4]) [nM] |
| --- | --- | --- | --- | --- |
| CC1(Oc2ccc(Cl)cc2)CCN(CCCCOc2ccc3ncsc3c2)C1 (centres unmarked) [Compound 29, 6-(4-(3-(4-chlorophenoxy)-3-methylpyrrolidin-1-yl)butoxy)benzo[d]thiazole] | > 30000 | 1000 to 10000 | > 30000 | 1000 to 10000 |
| CC1(Oc2ccc(Cl)cc2)CCN(CCOc2cccc3ccccc23)C1 (centres unmarked) [Compound 36, 3-(4-chlorophenoxy)-3-methyl-1-(2-(naphthalen-1-yloxy)ethyl) pyrrolidine] | > 30000 | 1000 to 10000 | 100 to 1000 | 100 to 1000 |
| CC1(Oc2ccc(Cl)cc2)CCN(CCOc2ccccc2)CC1 [Compound 38, 4-(4-chlorophenoxy)-4-methyl-1-(2-phenoxyethyl)piperidine] | 100 to 1000 | > 30000 | < 100 | > 30000 |
| CC1(Oc2ccccc2)CCN(CCOc2ccccc2)C1 (centres unmarked) [Compound 39, 3-methyl-3-phenoxy-1-(2-phenoxyethyl)pyrrolidine] | > 30000 | 100 to 1000 | < 100 | > 30000 |
| FC(F)(F)c1ccccc1OCCN1CCC2(CC1)CCN2c1ccccc1 [Compound 113, 1-phenyl-7-(2-(2-(trifluoromethyl)phenoxy)ethyl)-1,7-diazaspiro[3.5]nonane] | > 30000 | 100 to 1000 | > 30000 | 100 to 1000 |
| OC1(Cc2ccccc2)CCN(CCOc2ccccc2C(F)(F)F)CC1 [Compound 114, 4-benzyl-1-(2-(2-(trifluoromethyl)phenoxy)ethyl)piperidin-4-ol] | > 30000 | < 100 | > 30000 | < 100 |
| FC1(Cc2ccccc2)CCN(CCOc2ccccc2C(F)(F)F)CC1 [Compound 115, 4-benzyl-4-fluoro-1-(2-(2-(trifluoromethyl)phenoxy)ethyl)piperidine] | > 30000 | 1000 to 10000 | > 30000 | 1000 to 10000 |

Further lines, results first:

| EC50 (human D2R/β-arrestin [1]) [nM] | IC50 (human D2R/β-arrestin [2]) [nM] | EC50 (human D2R/β-arrestin [3]) [nM] | IC50 (human D2R/β-arrestin [4]) [nM] | Compound |
| --- | --- | --- | --- | --- |
| 1000 to 10000 | > 30000 | 100 to 1000 | > 30000 | CC1(Oc2ccc(Cl)cc2)CCN(CCOc2ccc(C(F)(F)F)nc2)C1 (centres unmarked) [Compound 30, 5-(2-(3-(4-Chlorophenoxy)-3-methylpyrrolidin-1-yl)ethoxy)-2-(trifluoromethyl)pyridine] |
| > 30000 | 1000 to 10000 | > 30000 | 100 to 1000 | CC1(Oc2ccc(Cl)cc2)CCN(CCOc2ccc3ccccc3c2)C1 (centres unmarked) [Compound 31, 3-(4-Chlorophenoxy)-3-methyl-1-(2-(naphthalen-2-yloxy)ethyl) pyrrolidine] |
| > 30000 | 1000 to 10000 | 100 to 1000 | > 30000 | CC1(Oc2ccc(Cl)cc2)CCN(CCOc2ccc3ncccc3c2)C1 (centres unmarked) [Compound 32] |
| > 30000 | 1000 to 10000 | > 30000 | 100 to 1000 | CC1(Oc2ccc(Cl)cc2)CCN(CCOc2ccc3cnccc3c2)C1 (centres unmarked) [Compound 33, 6-(2-(3-(4-chlorophenoxy)-3-methylpyrrolidin-1-yl)ethoxy)isoquinoline] |
| 1000 to 10000 | > 30000 | 100 to 1000 | > 30000 | CC1(Oc2ccc(Cl)cc2)CCN(CCOc2ccc3ccncc3c2)C1 (centres unmarked) [Compound 34, 7-(2-(3-(4-chlorophenoxy)-3-methylpyrrolidin-1-yl)ethoxy)isoquinoline] |
| > 30000 | 1000 to 10000 | < 100 | > 30000 | CC1(Oc2ccc(Cl)cc2)CCN(CCOc2ccc(Cl)c(Cl)c2)C1 (centres unmarked) [Compound 35, 3-(4-chlorophenoxy)-1-(2-(3,4-dichlorophenoxy)ethyl)-3-methyl pyrrolidine] |
| > 30000 | 1000 to 10000 | > 30000 | 100 to 1000 | CC1(Oc2ccc(Cl)cc2)CCN(CCOc2cccc(-c3ccccc3)c2)C1 (centres unmarked) [Compound 37, 1-(2-([1,1′-biphenyl]-3-yloxy)ethyl)-3-(4-chlorophenoxy)-3-methylpyrrolidine] |

Reference: patent US11498896B2 (The Broad Institute, Inc., priority 2014, dated 2022)
